# Measured values from PubChem BioAssay (NCI).
# “And” between values parts separate entries of the source, which are not always exact repeats. Identical values can stand only once.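 Dose response: 5 concentrations. Exposure: 48 h. Format: 96-well plates. Endpoint: linear interpolation; highest concentration if not reached. The concentration for 50% growth inhibition is given as GI50. TGI: total growth inhibition.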
# Legend:
# Assay in all cases: NCI-60 cell line screen, 48 h
# 786-0 renal = system: 786-0 renal
# A498 renal = system: A498 renal
# ACHN renal = system: ACHN renal
# BT-549 breast = system: BT-549 breast
# DU-145 prostate = system: DU-145 prostate
# EKVX NSCLC = system: EKVX NSCLC
# HCC-2998 colon = system: HCC-2998 colon
# HOP-92 NSCLC = system: HOP-92 NSCLC
# HS 578T breast = system: HS 578T breast
# KM12 colon = system: KM12 colon
# LXFL 529 NSCLC = system: LXFL 529 NSCLC
# M14 melanoma = system: M14 melanoma
# MDA-MB-231 breast = system: MDA-MB-231 breast
# NCI-H522 lung = system: NCI-H522 lung
# PC-3 prostate = system: PC-3 prostate
# RXF 393 renal = system: RXF 393 renal
# RXF-631 renal = system: RXF-631 renal
# SF-539 CNS = system: SF-539 CNS
# SK-MEL-28 melanoma = system: SK-MEL-28 melanoma
# SNB-75 CNS = system: SNB-75 CNS
# SR leukemia = system: SR leukemia
# T-47D breast = system: T-47D breast
# TK-10 renal = system: TK-10 renal
# XF 498 CNS = system: XF 498 CNS
# A549 NSCLC = system: A549 NSCLC
# CAKI-1 renal = system: CAKI-1 renal
# CCRF-CEM leukemia = system: CCRF-CEM leukemia
# COLO 205 colon = system: COLO 205 colon
# DLD-1 colon = system: DLD-1 colon
# HCT-116 colon = system: HCT-116 colon
# HCT-15 colon = system: HCT-15 colon
# HL-60(TB) leukemia = system: HL-60(TB) leukemia
# HOP-18 NSCLC = system: HOP-18 NSCLC
# HOP-62 NSCLC = system: HOP-62 NSCLC
# HT29 colon = system: HT29 colon
# IGROV1 ovarian = system: IGROV1 ovarian
# K-562 leukemia = system: K-562 leukemia
# KM20L2 colon = system: KM20L2 colon
# LOX IMVI melanoma = system: LOX IMVI melanoma
# M19-MEL melanoma = system: M19-MEL melanoma
# MALME-3M melanoma = system: MALME-3M melanoma
# MOLT-4 leukemia = system: MOLT-4 leukemia
# NCI-H226 lung = system: NCI-H226 lung
# NCI-H23 lung = system: NCI-H23 lung
# NCI-H460 lung = system: NCI-H460 lung
# OVCAR-4 ovarian = system: OVCAR-4 ovarian
# OVCAR-5 ovarian = system: OVCAR-5 ovarian
# OVCAR-8 ovarian = system: OVCAR-8 ovarian
# RPMI-8226 leukemia = system: RPMI-8226 leukemia
# SF-268 CNS = system: SF-268 CNS
# SF-295 CNS = system: SF-295 CNS
# SK-MEL-2 melanoma = system: SK-MEL-2 melanoma
# SK-MEL-5 melanoma = system: SK-MEL-5 melanoma
# SK-OV-3 ovarian = system: SK-OV-3 ovarian
# SN12C renal = system: SN12C renal
# SNB-19 CNS = system: SNB-19 CNS
# SNB-78 CNS = system: SNB-78 CNS
# SW-620 colon = system: SW-620 colon
# U251 CNS = system: U251 CNS
# UACC-257 melanoma = system: UACC-257 melanoma
# UACC-62 melanoma = system: UACC-62 melanoma
# UO-31 renal = system: UO-31 renal
smiles,measurement,setting,value
COc1cccc2c1C(=O)c1c(O)c3c(c(O)c1C2=O)C[C@@](O)(C(=O)CO)C[C@@H]3OC1CC(N2CCOCC2C#N)C(O)C(C)O1 (some centres not stated),GI50,786-0 renal,0.0534 nM and 0.0331 nM
same,TGI,786-0 renal,2.24 nM and 1.51 nM and 4.47 nM
same,TGI,A498 renal,1.04 nM and 0.139 nM
same,GI50,ACHN renal,0.078 nM and 0.023 nM
same,TGI,BT-549 breast,0.234 nM and 0.23 nM
same,TGI,DU-145 prostate,20 nM
same,TGI,EKVX NSCLC,0.75 nM and 0.901 nM
same,TGI,HCC-2998 colon,0.208 nM and 0.237 nM
same,TGI,HOP-92 NSCLC,0.614 nM and 0.566 nM
same,TGI,HS 578T breast,0.0535 nM and 0.221 nM
same,TGI,KM12 colon,1.55 nM and 0.377 nM and 2.59 nM
same,GI50,LXFL 529 NSCLC,0.245 nM
same,GI50,M14 melanoma,0.0812 nM
same,TGI,M14 melanoma,0.108 nM and 0.527 nM
same,TGI,MDA-MB-231 breast,0.812 nM
same,TGI,NCI-H522 lung,0.411 nM and 0.129 nM
same,TGI,PC-3 prostate,0.124 nM and 1.12 nM
same,TGI,RXF 393 renal,0.0982 nM and 0.0513 nM
same,TGI,RXF-631 renal,2.27 nM and 21.5 nM
same,TGI,SF-539 CNS,0.1 nM and 0.109 nM
same,TGI,SK-MEL-28 melanoma,0.481 nM and 0.552 nM
same,TGI,SNB-75 CNS,0.11 nM and 0.0613 nM
same,GI50,SR leukemia,0.0468 nM
same,TGI,T-47D breast,3.27 nM and 5.81 nM
same,GI50,TK-10 renal,0.278 nM and 0.374 nM
same,TGI,XF 498 CNS,0.397 nM and 0.282 nM
COc1ccc(-c2onc(-c3c(C)cc(C)cc3C)c2C2=NCCN2)cc1,TGI,786-0 renal,> 100000 nM
same,TGI,A549 NSCLC,> 100000 nM
same,TGI,ACHN renal,> 100000 nM
same,TGI,CAKI-1 renal,> 100000 nM
same,TGI,CCRF-CEM leukemia,> 100000 nM
same,TGI,COLO 205 colon,49000 nM
same,TGI,DLD-1 colon,> 100000 nM
same,TGI,EKVX NSCLC,> 100000 nM
same,TGI,HCC-2998 colon,> 100000 nM
same,TGI,HCT-116 colon,> 100000 nM
same,TGI,HCT-15 colon,> 100000 nM
same,TGI,HL-60(TB) leukemia,59300 nM
same,TGI,HOP-18 NSCLC,> 100000 nM
same,TGI,HOP-62 NSCLC,> 100000 nM
same,TGI,HT29 colon,> 100000 nM
same,TGI,IGROV1 ovarian,> 100000 nM
same,TGI,K-562 leukemia,> 100000 nM
same,TGI,KM12 colon,> 100000 nM
same,TGI,KM20L2 colon,> 100000 nM
same,TGI,LOX IMVI melanoma,> 100000 nM
same,TGI,LXFL 529 NSCLC,> 100000 nM
same,TGI,M14 melanoma,35800 nM
same,TGI,M19-MEL melanoma,> 100000 nM
same,TGI,MALME-3M melanoma,74100 nM
same,TGI,MOLT-4 leukemia,> 100000 nM
same,TGI,NCI-H226 lung,89800 nM
same,TGI,NCI-H23 lung,> 100000 nM
same,TGI,NCI-H460 lung,> 100000 nM
same,TGI,OVCAR-4 ovarian,> 100000 nM
same,TGI,OVCAR-5 ovarian,> 100000 nM
same,TGI,OVCAR-8 ovarian,> 100000 nM
same,TGI,RPMI-8226 leukemia,> 100000 nM
same,TGI,RXF 393 renal,> 100000 nM
same,TGI,RXF-631 renal,> 100000 nM
same,TGI,SF-268 CNS,> 100000 nM
same,TGI,SF-295 CNS,35300 nM
same,TGI,SF-539 CNS,44100 nM
same,TGI,SK-MEL-2 melanoma,> 100000 nM
same,TGI,SK-MEL-28 melanoma,48200 nM
same,TGI,SK-MEL-5 melanoma,36600 nM
same,TGI,SK-OV-3 ovarian,> 100000 nM
same,TGI,SN12C renal,> 100000 nM
same,TGI,SNB-19 CNS,> 100000 nM
same,TGI,SNB-75 CNS,> 100000 nM
same,TGI,SNB-78 CNS,> 100000 nM
same,TGI,SR leukemia,> 100000 nM
same,TGI,SW-620 colon,> 100000 nM
same,TGI,U251 CNS,46700 nM
same,TGI,UACC-257 melanoma,46100 nM
same,TGI,UACC-62 melanoma,> 100000 nM
same,TGI,UO-31 renal,> 100000 nM
